Paper PMC13170396 (Journal of controlled release : official journal of the …, 2025)

How the values were obtained:
[1] = cited from earlier work
[2] = tested on: p53-positive solid tumors; conditions: clinical; cited from earlier work
[3] = cited from earlier work; for clearance / elimination half-life t1/2 / volume of distribution: murine models
[4] = tested on: HCT116 and UISO-Mel29 cells; test: Cell proliferation assay; format: cell-based, human
[5] = tested on: HCT116, UISO-Mel29, CCD33Co and fibroblasts; test: Confocal imaging of cell penetration; format: cell-based, human; conditions: AF-p28 20 μM or AF-Arg8 5 μM, 2 h, 37 °C, confocal microscopy, Fig. 2A

Compound | water solubility [1] | adverse effects, toxicity, immunogenicity in humans [2] | primary route of excretion [3] | clearance [3] [L/h/kg] | elimination half-life t1/2 [3] [h] | volume of distribution [3] [L/kg] | effect of CQ on the anti-proliferative effect of p28 ([4]; CQ 10 μM with varying concentrations of p28, 24 h, Fig. 6A, B) | cytotoxic activity in cancer cells ([4]; Fig. S4) | cell penetration, cancer cells compared to normal cells [5]
CSCC[C@H](NC(=O)CNC(=O)[C@H](CC(=O)O)NC(=O)[C@@H](NC(=O)[C@@H](NC(=O)[C@@H](NC(=O)CNC(=O)[C@H](CCC(N)=O)NC(=O)[C@H](CCSC)NC(=O)[C@H](CC(=O)O)NC(=O)[C@H](C)NC(=O)[C@H](C)NC(=O)[C@@H](NC(=O)[C@H](CO)NC(=O)[C@@H](N)CC(C)C)[C@@H](C)O)C(C)C)C(C)C)[C@@H](C)O)C(=O)N[C@@H](C)C(=O)N[C@@H](CO)C(=O)NCC(=O)N[C@@H](CC(C)C)C(=O)N[C@@H](CC(=O)O)C(=O)N[C@@H](CCCCN)C(=O)N[C@@H](CC(=O)O)C(=O)N[C@@H](Cc1ccc(O)cc1)C(=O)N[C@@H](CC(C)C)C(=O)N[C@@H](CCCCN)C(=O)N1CCC[C@H]1C(=O)N[C@@H](CC(=O)O)C(=O)N[C@@H](CC(=O)O)C(=O)O [p28] | highly water soluble | no significant adverse effects, toxicity or immunogenicity | renal clearance | 2.2 | 0.06 | 0.29 |  |  | 
CCN(CC)CCCC(C)Nc1ccnc2cc(Cl)ccc12 (stereo not shown) [CQ, chloroquine] |  |  | hepatic clearance | 9.9 | 46.6 | 667 | significantly enhanced the effect of p28 | dose-dependent cytotoxic activity | 
octaarginine [Arg8] |  |  |  |  |  |  |  |  | penetrated both cancer and normal cells
